Each structure is given as a SMILES string.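 Method: 48-hour compound exposure of cells in 96-well plates, five concentrations, linear interpolation of endpoints. GI50 = concentration required for 50% inhibition of growth. TGI denotes the concentration required for complete inhibition of growth.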

Test systems include PC-3 prostate; SK-MEL-2 melanoma; OVCAR-5 ovarian; K-562 leukemia; KM12 colon; NCI-H522 lung; MDA-MB-231 breast; A498 renal; NCI-H226 lung; HCC-2998 colon.
Common to all, as to test: growth of human tumour cells (NCI), 48 h

With `COC(=O)c1ccc2c(c1)C(NC(C)=O)CCc1cc(OC)c(OC)c(OC)c1-2` (stereo not given), the TGI was over 36.9 µM in the test on PC-3 prostate; 6.58 µM in the test on SK-MEL-2 melanoma; over 95.9 µM with OVCAR-5 ovarian; 28.1 µM with K-562 leukemia; 0.219 µM in the test with KM12 colon; 0.074 µM with NCI-H522 lung. Besides, the TGI in the test on MDA-MB-231 breast was over 100 µM; in the test with A498 renal it was 4.27 µM; in the test on NCI-H226 lung, 1.17 µM; in the test with HCC-2998 colon, 0.706 µM.
As for `O=C(Nc1ccc(OC(F)(F)F)cc1)c1sccc1NCc1ccnc2ccccc12`, the GI50 in the test with PC-3 prostate was 3.74 µM; in the test on SK-MEL-2 melanoma, 1.28 µM; with OVCAR-5 ovarian, 7.73 µM; in the test on K-562 leukemia it was 1.61 µM; in the test with KM12 colon, 3.85 µM; in the test with NCI-H522 lung, 3 µM. In addition, the GI50 in the test on MDA-MB-231 breast is 1.98 µM; in the test with A498 renal, 3 µM; in the test with NCI-H226 lung, 2.89 µM; in the test on HCC-2998 colon it was 4.82 µM. Besides, the TGI was over 83.3 µM in the test with PC-3 prostate; 4.3 µM in the test on SK-MEL-2 melanoma; over 100 µM with OVCAR-5 ovarian; over 100 µM in the test on K-562 leukemia; over 56.9 µM in the test with KM12 colon; over 72 µM in the test on NCI-H522 lung. For the same molecule, the TGI with MDA-MB-231 breast is 15.5 µM; with A498 renal, over 40.9 µM; in the test on NCI-H226 lung, over 90.6 µM; with HCC-2998 colon, over 100 µM.
For `NS(=O)(=O)c1ccc(N2Cc3cc(Cl)ccc3OC3=C2C(=O)N(CC2CCCCC2)C3=O)cc1`, the GI50 with PC-3 prostate is 0.519 µM; in the test with SK-MEL-2 melanoma it was 1.86 µM; with OVCAR-5 ovarian, 1.76 µM; in the test on K-562 leukemia it was 0.27 µM; with KM12 colon it was 1.83 µM; in the test on NCI-H522 lung it was 0.273 µM. In addition, the GI50 in the test on MDA-MB-231 breast was 1.11 µM; in the test with A498 renal, 1.26 µM; with NCI-H226 lung, 1.54 µM; in the test on HCC-2998 colon, 1.84 µM. Besides, the TGI in the test with PC-3 prostate is 2.09 µM; with SK-MEL-2 melanoma, 3.65 µM; in the test on OVCAR-5 ovarian, 3.54 µM; in the test with K-562 leukemia, 0.736 µM; with KM12 colon, 4.08 µM; with NCI-H522 lung, 0.676 µM. Besides, the TGI in the test on MDA-MB-231 breast was found to be 2.6 µM; with A498 renal, 2.85 µM; with NCI-H226 lung, 3.6 µM; with HCC-2998 colon, 3.51 µM.
Take `CSc1ccc(C2=Nn3c(nnc3-c3ccc(F)c(Cl)c3)SC2)cc1`: the GI50 in the test with PC-3 prostate was 4.67 µM; in the test on SK-MEL-2 melanoma, 4.77 µM; in the test on OVCAR-5 ovarian it was 39.5 µM; in the test with K-562 leukemia it was 2.28 µM; in the test with KM12 colon, 7.78 µM; in the test with NCI-H522 lung, 4.38 µM. Further, the GI50 in the test with MDA-MB-231 breast was 4.12 µM; with A498 renal, 10 µM; in the test on NCI-H226 lung, 18.4 µM; in the test with HCC-2998 colon, 24 µM. Also, the TGI in the test on PC-3 prostate is over 100 µM; in the test on SK-MEL-2 melanoma, 18 µM; with OVCAR-5 ovarian, over 100 µM; with K-562 leukemia it was over 100 µM; with KM12 colon, 45.1 µM; with NCI-H522 lung, 21.4 µM. The TGI with MDA-MB-231 breast was 21 µM; in the test with A498 renal it was 30.2 µM; with NCI-H226 lung, 75.7 µM; with HCC-2998 colon, over 100 µM.
For `CCOC(=O)c1c(NC(=O)c2ccc(C(C)C)cc2)sc2c(CN(C)C)c(O)ccc12`, the GI50 with PC-3 prostate is 2.18 µM; with SK-MEL-2 melanoma, 2.14 µM; in the test with OVCAR-5 ovarian, 2.92 µM; with K-562 leukemia it was 0.535 µM; in the test with KM12 colon, 1.83 µM; with NCI-H522 lung it was 2.01 µM. Besides, the GI50 in the test on MDA-MB-231 breast is 1.95 µM; with A498 renal, 1.86 µM; with NCI-H226 lung, 2.19 µM; with HCC-2998 colon, 1.88 µM. In addition, the TGI in the test with PC-3 prostate came to 5.71 µM; with SK-MEL-2 melanoma it was 4.59 µM; with OVCAR-5 ovarian, 9.49 µM; with K-562 leukemia, 3.28 µM; with KM12 colon, 3.45 µM; in the test on NCI-H522 lung, 4.53 µM. Besides, the TGI in the test with MDA-MB-231 breast stood at 3.83 µM; with A498 renal it was 9.02 µM; with NCI-H226 lung, 6.48 µM; in the test on HCC-2998 colon, 3.51 µM.
On to `C#C[C@]1(O)CC[C@H]2[C@@H]3CC=C4c5nc(Nc6ccccn6)sc5CC[C@]4(C)[C@H]3CC[C@@]21C`, for which the GI50 in the test on PC-3 prostate was 0.489 µM; in the test with SK-MEL-2 melanoma, 0.603 µM; in the test with OVCAR-5 ovarian, 1.65 µM; in the test on K-562 leukemia it was 0.348 µM; in the test on KM12 colon it was 1.7 µM; in the test with NCI-H522 lung, 1.86 µM. For the same molecule, the GI50 with MDA-MB-231 breast is 1 µM; in the test on A498 renal, 0.26 µM; in the test with NCI-H226 lung, 1.51 µM; with HCC-2998 colon it was 1.95 µM. Moreover, the TGI with PC-3 prostate is 3.99 µM; in the test on SK-MEL-2 melanoma, 3.08 µM; in the test on OVCAR-5 ovarian it was 4.44 µM; with K-562 leukemia it was 2.13 µM; in the test with KM12 colon, 4.5 µM; in the test on NCI-H522 lung, 4.12 µM. Also, the TGI with MDA-MB-231 breast came out at 3.11 µM; in the test on A498 renal, 1.19 µM; with NCI-H226 lung, 3.91 µM; with HCC-2998 colon, 5.13 µM.
For `CCN(c1ccc(CO)c(Cl)c1)C(C)c1ccc(F)cc1` (stereo not given), the GI50 in the test with PC-3 prostate was 13.1 µM; with SK-MEL-2 melanoma, 13.2 µM; in the test with OVCAR-5 ovarian it was 2.97 µM; with K-562 leukemia, 9.86 µM; with KM12 colon, 17 µM; in the test on NCI-H522 lung, 12.7 µM. Also, the GI50 was 15.3 µM in the test on MDA-MB-231 breast, 0.117 µM in the test on A498 renal, 0.49 µM in the test with NCI-H226 lung and 16.6 µM with HCC-2998 colon. Further, the TGI with PC-3 prostate stood at 26.7 µM; in the test with SK-MEL-2 melanoma it was 28 µM; with OVCAR-5 ovarian it was 11.9 µM; in the test on K-562 leukemia, 24.7 µM; in the test on KM12 colon, 32.5 µM; in the test on NCI-H522 lung, 26.7 µM. Further, the TGI stood at 30.1 µM with MDA-MB-231 breast, 0.843 µM with A498 renal, 2.31 µM in the test with NCI-H226 lung and 32.8 µM with HCC-2998 colon.
